14 compounds from patent US20250296971A1, “GASTRIC INHIBITORY PEPTIDE RECEPTOR LIGANDS” (priority 2021, published 2025) can be followed below.

*1 amine or outer side, *2 acyl side, *3 side chain or, on linkers, in order; H or OH if unused. Where a SMILES comes first, the peptide text is derived from it. Bridges are numbered along the chain shown (N, C = ends). [ ]: non-standard residue; d: D form. Trp(5-Cl) = N[C@@H](Cc1c[nH]c2ccc(Cl)cc12)C(=O)O; Phe(3,4-Cl2) = N[C@@H](Cc1ccc(Cl)c(Cl)c1)C(=O)O; Pyridine(2,6-diCH2) = c1cc(C[*:1])nc(C[*:2])c1; Phe(2,4-Cl2) = N[C@@H](Cc1ccc(Cl)cc1Cl)C(=O)O; Phe(3-Cl) = N[C@@H](Cc1cccc(Cl)c1)C(=O)O; Phe(4-Cl) = N[C@@H](Cc1ccc(Cl)cc1)C(=O)O; Thz(5,5-Me2) = CC1(C)SCN[C@@H]1C(=O)O; Glutaryl = O=C(CCCC(=O)[*:2])[*:1]; Ser(ΨH,HPro) = O=C(O)[C@@H]1COCN1; Hyp = O=C(O)[C@@H]1C[C@@H](O)CN1; NMeE = CN[C@@H](CCC(=O)O)C(=O)O; pS = N[C@@H](COP(=O)(O)O)C(=O)O; Aic = NC1(C(=O)O)Cc2ccccc2C1; Thp = NC1(C(=O)O)CCOCC1 Bounds are passed on as bounds.

In this assay the target is T1, GIPR (CHO-K1-hGIPR cells) (Homo sapiens, UniProt P48546).
T1 construct: host or cells: CHO-K1
T1 sequence (P48546 22-466): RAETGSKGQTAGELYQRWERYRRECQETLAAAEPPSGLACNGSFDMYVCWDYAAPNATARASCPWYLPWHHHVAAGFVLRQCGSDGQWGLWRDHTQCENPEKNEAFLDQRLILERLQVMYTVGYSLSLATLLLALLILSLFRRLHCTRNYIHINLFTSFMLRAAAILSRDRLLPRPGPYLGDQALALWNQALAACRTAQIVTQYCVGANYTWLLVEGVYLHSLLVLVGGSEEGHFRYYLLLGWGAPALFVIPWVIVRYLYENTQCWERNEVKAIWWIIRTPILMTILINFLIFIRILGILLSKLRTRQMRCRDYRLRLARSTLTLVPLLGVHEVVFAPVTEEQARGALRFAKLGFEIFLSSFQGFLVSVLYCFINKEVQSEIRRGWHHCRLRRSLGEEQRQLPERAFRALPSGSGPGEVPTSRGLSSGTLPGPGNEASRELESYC
The experiment in a line: FACS binding assay. As to conditions: competition with 20 nM GIP-057, 4° C., 1 hour, read-out: pIC50 Category (converted). Summed up: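 Peptide binding read by flow cytometry as APC-channel median fluorescence, fitted with a four-parameter logistic to yield EC50 or IC50. Cells were hGIPR-transfected CHO-K1 in PBS with 1% FCS, detected with 1 μg/mL APC-streptavidin, 30 min on ice.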
(In general: Flow cytometry measures light scatter and fluorescence of single cells or particles in a stream.)

`CC[C@H](C)[C@@H]1NC(=O)[C@H](CC(C)C)NC(=O)C2(CCOCC2)NC(=O)[C@@H](NC(=O)[C@@H](CC(C)C)NC(=O)[C@H](CCC(=O)O)NC(=O)[C@@H]2C[C@@H](O)CN2C(=O)[C@H](Cc2c[nH]c3ccc(Cl)cc23)NC(=O)[C@H](Cc2c[nH]c3ccccc23)NC(=O)[C@H](CCC(N)=O)NC(C)=O)CSCc2cccc(n2)CSC[C@@H](C(N)=O)NC1=O` [GIP-204, Ac-Gln-Trp-5Clw-Hyp-Glu-leu-[Cys(2Lut)-Thp-Leu-Ile-Cys]-NH2] (Ac-QW[Trp(5-Cl)][Hyp]E[dL]C[Thp]LIC-NH2; linker 7-11 via Pyridine(2,6-diCH2)): the IC50 is under 10 nM.

For the compound `CC[C@H](C)[C@@H]1NC(=O)[C@H](CC(C)C)NC(=O)C2(CCOCC2)NC(=O)[C@@H](NC(=O)[C@@H](CC(C)C)NC(=O)[C@H](CC(N)=O)NC(=O)[C@@H]2C[C@@H](O)CN2C(=O)[C@H](Cc2c[nH]c3ccc(Cl)cc23)NC(=O)[C@H](Cc2c[nH]c3ccccc23)NC(=O)[C@H](CC(=O)O)NC(C)=O)CSCc2cccc(n2)CSC[C@@H](C(N)=O)NC1=O` [GIP-205, Ac-Asp-Trp-5Clw-Hyp-Asn-leu-[Cys(2Lut)-Thp-Leu-Ile-Cys]-NH2] (Ac-DW[Trp(5-Cl)][Hyp]N[dL]C[Thp]LIC-NH2; linker 7-11 via Pyridine(2,6-diCH2)), the IC50 was under 10 nM.

For `CC[C@H](C)[C@@H]1NC(=O)[C@H](CC(C)C)NC(=O)C2(Cc3ccccc3C2)NC(=O)[C@@H](NC(=O)[C@@H](CC(C)C)NC(=O)[C@H](CCC(=O)O)NC(=O)[C@@H]2C[C@@H](O)CN2C(=O)[C@H](Cc2c[nH]c3ccc(Cl)cc23)NC(=O)[C@H](Cc2c[nH]c3ccccc23)NC(=O)[C@H](CC(=O)O)NC(C)=O)CSCc2cccc(n2)CSC[C@@H](C(N)=O)NC1=O` [GIP-206, Ac-Asp-Trp-5Clw-Hyp-Glu-leu-[Cys(2Lut)-Aic-Leu-Ile-Cys]-NH2] (Ac-DW[Trp(5-Cl)][Hyp]E[dL]C[Aic]LIC-NH2; linker 7-11 via Pyridine(2,6-diCH2)), the IC50 is under 10 nM.

With `CC[C@H](C)[C@@H]1NC(=O)[C@H](CC(C)C)NC(=O)C2(CCOCC2)NC(=O)[C@@H](NC(=O)[C@@H](CC(C)C)NC(=O)[C@H](CCC(=O)O)NC(=O)[C@@H]2C[C@@H](O)CN2C(=O)[C@H](Cc2c[nH]c3ccc(Cl)cc23)NC(=O)[C@H](Cc2c[nH]c3ccccc23)NC(=O)[C@H](COP(=O)(O)O)NC(C)=O)CSCc2cccc(n2)CSC[C@@H](C(N)=O)NC1=O` [GIP-207, Ac-Pse-Trp-5Clw-Hyp-Glu-leu-[Cys(2Lut)-Thp-Leu-Ile-Cys]-NH2] (Ac-[pS]W[Trp(5-Cl)][Hyp]E[dL]C[Thp]LIC-NH2; linker 7-11 via Pyridine(2,6-diCH2)), the IC50 is under 10 nM.

In the case of `CC[C@H](C)[C@@H]1NC(=O)[C@H](CC(C)C)NC(=O)C2(CCOCC2)NC(=O)[C@@H](NC(=O)[C@@H](CC(C)C)NC(=O)[C@H](COP(=O)(O)O)NC(=O)[C@@H]2C[C@@H](O)CN2C(=O)[C@H](Cc2c[nH]c3ccc(Cl)cc23)NC(=O)[C@H](Cc2c[nH]c3ccccc23)NC(=O)[C@H](CC(=O)O)NC(C)=O)CSCc2cccc(n2)CSC[C@@H](C(N)=O)NC1=O` [GIP-208, Ac-Asp-Trp-5Clw-Hyp-Pse-leu-[Cys(2Lut)-Thp-Leu-Ile-Cys]-NH2] (Ac-DW[Trp(5-Cl)][Hyp][pS][dL]C[Thp]LIC-NH2; linker 7-11 via Pyridine(2,6-diCH2)), the IC50 is under 10 nM.

Take `CC[C@H](C)[C@@H]1NC(=O)[C@H](CC(C)C)NC(=O)C2(CCOCC2)NC(=O)[C@@H](NC(=O)[C@@H](CC(C)C)NC(=O)[C@H](CCC(=O)O)NC(=O)[C@@H]2C[C@@H](O)CN2C(=O)[C@H](Cc2c[nH]c3ccc(Cl)cc23)NC(=O)[C@H](Cc2cccc(Cl)c2)NC(=O)[C@H](CC(=O)O)NC(C)=O)CSCc2cccc(n2)CSC[C@@H](C(N)=O)NC1=O` [GIP-209, Ac-Asp-Mcf-5Clw-Hyp-Glu-leu-[Cys(2Lut)-Thp-Leu-Ile-Cys]-NH2] (Ac-D[Phe(3-Cl)][Trp(5-Cl)][Hyp]E[dL]C[Thp]LIC-NH2; linker 7-11 via Pyridine(2,6-diCH2)): the IC50 was under 10 nM.

Turning to `CC[C@H](C)[C@@H]1NC(=O)[C@H](CC(C)C)NC(=O)C2(CCOCC2)NC(=O)[C@@H](NC(=O)[C@@H](CC(C)C)NC(=O)[C@H](CCC(=O)O)NC(=O)[C@@H]2C[C@@H](O)CN2C(=O)[C@H](Cc2c[nH]c3ccc(Cl)cc23)NC(=O)[C@H](Cc2ccc(Cl)cc2)NC(=O)[C@H](CC(=O)O)NC(C)=O)CSCc2cccc(n2)CSC[C@@H](C(N)=O)NC1=O` [GIP-210, Ac-Asp-Pcf-5Clw-Hyp-Glu-leu-[Cys(2Lut)-Thp-Leu-Ile-Cys]-NH2] (Ac-D[Phe(4-Cl)][Trp(5-Cl)][Hyp]E[dL]C[Thp]LIC-NH2; linker 7-11 via Pyridine(2,6-diCH2)), the IC50 is under 10 nM.

In the case of `CC[C@H](C)[C@@H]1NC(=O)[C@H](CC(C)C)NC(=O)C2(CCOCC2)NC(=O)[C@@H](NC(=O)[C@@H](CC(C)C)NC(=O)[C@H](CCC(=O)O)NC(=O)[C@@H]2C[C@@H](O)CN2C(=O)[C@H](Cc2c[nH]c3ccc(Cl)cc23)NC(=O)[C@H](Cc2ccc(Cl)c(Cl)c2)NC(=O)[C@H](CC(=O)O)NC(C)=O)CSCc2cccc(n2)CSC[C@@H](C(N)=O)NC1=O` [GIP-211, Ac-Asp-Eaa-5Clw-Hyp-Glu-leu-[Cys(2Lut)-Thp-Leu-Ile-Cys]-NH2] (Ac-D[Phe(3,4-Cl2)][Trp(5-Cl)][Hyp]E[dL]C[Thp]LIC-NH2; linker 7-11 via Pyridine(2,6-diCH2)), the IC50 was under 10 nM.

Turning to `CC[C@H](C)[C@@H]1NC(=O)[C@H](CC(C)C)NC(=O)C2(CCOCC2)NC(=O)[C@@H](NC(=O)[C@@H](CC(C)C)NC(=O)[C@H](CCC(=O)O)NC(=O)[C@@H]2C[C@@H](O)CN2C(=O)[C@H](Cc2c[nH]c3ccc(Cl)cc23)NC(=O)[C@H](Cc2ccc(Cl)cc2Cl)NC(=O)[C@H](CC(=O)O)NC(C)=O)CSCc2cccc(n2)CSC[C@@H](C(N)=O)NC1=O` [GIP-212, Ac-Asp-Egm-5Clw-Hyp-Glu-leu-[Cys(2Lut)-Thp-Leu-Ile-Cys]-NH2] (Ac-D[Phe(2,4-Cl2)][Trp(5-Cl)][Hyp]E[dL]C[Thp]LIC-NH2; linker 7-11 via Pyridine(2,6-diCH2)), the IC50 was under 10 nM.

On to `CC[C@H](C)[C@@H]1NC(=O)[C@H](CC(C)C)NC(=O)C2(CCOCC2)NC(=O)[C@@H](NC(=O)[C@@H](CC(C)C)NC(=O)[C@H](CCC(=O)O)NC(=O)[C@@H]2C[C@@H](O)CN2C(=O)[C@H](Cc2ccc(Cl)c(Cl)c2)NC(=O)[C@H](Cc2c[nH]c3ccccc23)NC(=O)[C@H](CC(=O)O)NC(C)=O)CSCc2cccc(n2)CSC[C@@H](C(N)=O)NC1=O` [GIP-213, Ac-Asp-Trp-Eaa-Hyp-Glu-leu-[Cys(2Lut)-Thp-Leu-Ile-Cys]-NH2] (Ac-DW[Phe(3,4-Cl2)][Hyp]E[dL]C[Thp]LIC-NH2; linker 7-11 via Pyridine(2,6-diCH2)), for which the IC50 was under 10 nM.

On to `CC[C@H](C)[C@@H]1NC(=O)[C@H](CC(C)C)NC(=O)C2(CCOCC2)NC(=O)[C@@H](NC(=O)[C@@H](CC(C)C)NC(=O)[C@H](CCC(=O)O)NC(=O)[C@@H]2C[C@@H](O)CN2C(=O)[C@H](Cc2c[nH]c3ccc(Cl)cc23)NC(=O)[C@H](Cc2c[nH]c3ccccc23)NC(=O)CCCC(=O)O)CSCc2cccc(n2)CSC[C@@H](C(N)=O)NC1=O` [GIP-214, HO-Glutar-Trp-5Clw-Hyp-Glu-leu-[Cys(2Lut)-Thp-Leu-Ile-Cys]-NH2] (Glutaryl-W[Trp(5-Cl)][Hyp]E[dL]C[Thp]LIC-NH2; linker 6-10 via Pyridine(2,6-diCH2)), for which the IC50 is under 10 nM.

For the compound `CC[C@H](C)[C@@H]1NC(=O)[C@H](CC(C)C)NC(=O)C2(CCOCC2)NC(=O)[C@@H](NC(=O)[C@@H](CC(C)C)NC(=O)[C@H](CCC(=O)O)NC(=O)[C@H]2N(C(=O)[C@H](Cc3c[nH]c4ccc(Cl)cc34)NC(=O)[C@H](Cc3c[nH]c4ccccc34)NC(=O)[C@H](CC(=O)O)NC(C)=O)CSC2(C)C)CSCc2cccc(n2)CSC[C@@H](C(N)=O)NC1=O` [GIP-215, Ac-Asp-Trp-5Clw-Dtc-Glu-leu-[Cys(2Lut)-Thp-Leu-Ile-Cys]-NH2] (Ac-DW[Trp(5-Cl)][Thz(5,5-Me2)]E[dL]C[Thp]LIC-NH2; linker 7-11 via Pyridine(2,6-diCH2)), the IC50 is under 10 nM.

Regarding `CC[C@H](C)[C@@H]1NC(=O)[C@H](CC(C)C)NC(=O)C2(CCOCC2)NC(=O)[C@@H](NC(=O)[C@@H](CC(C)C)NC(=O)[C@H](CCC(=O)O)NC(=O)[C@@H]2COCN2C(=O)[C@H](Cc2c[nH]c3ccc(Cl)cc23)NC(=O)[C@H](Cc2c[nH]c3ccccc23)NC(=O)[C@H](CC(=O)O)NC(C)=O)CSCc2cccc(n2)CSC[C@@H](C(N)=O)NC1=O` [GIP-216, Ac-Asp-Trp-5Clw-Oxa-Glu-leu-[Cys(2Lut)-Thp-Leu-Ile-Cys]-NH2] (Ac-DW[Trp(5-Cl)][Ser(ΨH,HPro)]E[dL]C[Thp]LIC-NH2; linker 7-11 via Pyridine(2,6-diCH2)), the IC50 is under 10 nM.

For `CC[C@H](C)[C@@H]1NC(=O)[C@H](CC(C)C)NC(=O)C2(CCOCC2)NC(=O)[C@@H](NC(=O)[C@H](CC(C)C)NC(=O)[C@H](CCC(=O)O)N(C)C(=O)[C@@H]2C[C@@H](O)CN2C(=O)[C@H](Cc2c[nH]c3ccc(Cl)cc23)NC(=O)[C@H](Cc2c[nH]c3ccccc23)NC(=O)[C@H](CC(=O)O)NC(C)=O)CSCc2cccc(n2)CSC[C@@H](C(N)=O)NC1=O` [GIP-217, Ac-Asp-Trp-5Clw-Hyp-Nme-Leu-[Cys(2Lut)-Thp-Leu-Ile-Cys]-NH2] (Ac-DW[Trp(5-Cl)][Hyp][NMeE]LC[Thp]LIC-NH2; linker 7-11 via Pyridine(2,6-diCH2)), the IC50 is under 10 nM.
